The target in the experiment is T1, KRas G12C (Homo sapiens, UniProt P01116, G12C).
T1 construct: NCI-H358 cells (ATCC CRL-5807) express KRas G12C; host or cells: NCI-H358
Put plainly: Inhibition of KRas G12C in NCI-H358 cells measured by phosphorylated ERK (Phospho-ERK). It counts as cell-based. The settings on record: pERK(Thr202/Tyr204) signal normalized with GAPDH, percent of DMSO control, 3 hours compound treatment. As for the experimental part: The cellular inhibition of KRAs G12C by exemplary compounds of the present invention was determined by measuring the amount of a downstream marker of KRas activity, phosphorylated ERK (“Phospho-ERK”).
NCI-H358 cells (ATCC CRL-5807) express KRas G12C and were grown in RPMI medium supplemented with 10% fetal bovine serum, penicillin/streptomycin and 10 mM HEPES. Cells were plated in poly-D-Lysine coated 96-well plates at a concentration of 50,000 cells/well and allowed to attach for 8-12 hours. Diluted compounds were then added at a final concentration of 0.5% DMSO. After 3 hours, the medium was removed, 150 μL of 4% formaldehyde was added and the plates were incubated for 20 minutes. The plates were washed with PBS, and permeabilized using 150 μL of ice cold 100% methanol for 10 minutes. Non-specific antibody binding to the plates was blocked using 100 μL Licor Blocking Buffer (Li-Cor Biotechnology, Lincoln Nebr.) for 1 hour at room temperature. Positive control samples and samples lacking cells were parallel processed with test samples as standards.
The amount Phospho-ERK was determined using an antibody specific for the phosphorylated form of ERK and compared to the amount of GAPDH. Primary antibodies used for detection were added as follows: Phospho-ERK (Cell Signaling cs9101) diluted 1:500 and GAPDH (Millipore MAB374) diluted 1:5000 in Licor block+0.05% Tween 20. The plates were incubated for 2 hours at room temperature. The plates were washed with PBS+0.05% Tween 20.
Secondary antibodies used to visualize primary antibodies were added as follows: Anti-rabbit-680 diluted 1:1000 and Anti-mouse-800 diluted 1:1000 in Licor Block+0.05% Tween 20 and incubated for 1 hour at room temperature. The plates were washed with PBS+0.05% Tween 20. A 100 μL aliquot of PBS was added to each well and the plates were read on a LICOR AERIUS plate reader.
The pERK(Thr202/Tyr204) signal was normalized with the GAPDH signal and percent of DMSO control values were calculated. IC50 values were generated using a 4 parameter fit of the dose response curve. Key: “A”≤500 nM; “B”>500 nM and ND=not determined.

Each structure is given as a SMILES string. Bounds are passed on as bounds.

T1 sequence (P01116 1-188 isoform P01116-2 G12C): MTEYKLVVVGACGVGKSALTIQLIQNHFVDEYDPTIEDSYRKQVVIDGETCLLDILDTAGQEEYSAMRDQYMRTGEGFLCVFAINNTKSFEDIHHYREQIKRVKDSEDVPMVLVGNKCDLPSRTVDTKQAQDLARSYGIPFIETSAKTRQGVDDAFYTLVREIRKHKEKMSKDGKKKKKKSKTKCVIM

Regarding `C=CC(=O)N1CCN(c2nc(OC[C@@H]3CCCN3C)nc3c2CCCN(c2c(C)ccc4ccccc24)C3)C[C@@H]1CC#N` [Example 3, 2-[(2S)-4-[8-(2-methyl-1-naphthyl)-2-[[(2S)-1-methylpyrrolidin-2-yl]methoxy]-5,6,7,9-tetrahydropyrimido[4,5-c]azepin-4-yl]-1-prop-2-enoyl-piperazin-2-yl]acetonitrile], the IC50 (commonly the concentration needed to halve the response being measured) was no more than 500 nM. As for `C=CC(=O)N1CCN(c2nc(OC[C@@H]3CCCN3C)nc3c2CCCN(c2cccc4c(F)cccc24)C3)C[C@@H]1CC#N` [Example 12, 2-((S)-1-acryloyl-4-(8-(5-fluoronaphthalen-1-yl)-2-(((S)-1-methylpyrrolidin-2-yl)methoxy)-6,7,8,9-tetrahydro-5H-pyrimido[4,5-c]azepin-4-yl)piperazin-2-yl)acetonitrile], the figure is no more than 500 nM. As for `C=CC(=O)N1CCN(c2nc(OC[C@@H]3CCCN3C)nc3c2CCCN(c2cccc4cccc(C(F)(F)F)c24)C3)C[C@@H]1CC#N` [Example 21, 2-((S)-1-acryloyl-4-(2-(((S)-1-methylpyrrolidin-2-yl)methoxy)-8-(8-(trifluoromethyl)naphthalen-1-yl)-6,7,8,9-tetrahydro-5H-pyrimido[4,5-c]azepin-4-yl)piperazin-2-yl)acetonitrile], the figure is greater than 500 nM; as for `C=CC(=O)N1CCN(c2nc(OC[C@@H]3CCCN3C)nc3c2CCCN(c2nccc4cccc(C)c24)C3)C[C@@H]1CC#N` [Example 17, 2-[(2S)-4-[8-(8-methyl-1-isoquinolyl)-2-[[(2S)-1-methylpyrrolidin-2-yl]methoxy]-5,6,7,9-tetrahydropyrimido[4,5-c]azepin-4-yl]-1-prop-2-enoyl-piperazin-2-yl]acetonitrile], no more than 500 nM; as for `C=CC(=O)N1CCN(c2nc(OC[C@@H]3CCCN3C)nc3c2CCCN(c2ccccc2CO)C3)C[C@@H]1CC#N` [Example 16, 2-[(2S)-4-[8-[2-(hydroxymethyl)phenyl]-2-[[(2S)-1-methylpyrrolidin-2-yl]methoxy]-5,6,7,9-tetrahydropyrimido[4,5-c]azepin-4-yl]-1-prop-2-enoyl-piperazin-2-yl]acetonitrile], greater than 500 nM. In turn, `C=CC(=O)N1CCN(c2nc(OC[C@@H]3CCCN3C)nc3c2CCCN(c2c(F)ccc4ccccc24)C3)C[C@@H]1CC#N` [Example 10, 2-((S)-1-acryloyl-4-(8-(2-fluoronaphthalen-1-yl)-2-(((S)-1-methylpyrrolidin-2-yl)methoxy)-6,7,8,9-tetrahydro-5H-pyrimido[4,5-c]azepin-4-yl)piperazin-2-yl)acetonitrile] came in with an IC50 of no more than 500 nM. To `C=CC(=O)N1CCN(c2nc(OC[C@@H]3CCCN3C)nc3c2CCCN(c2cccc4cccc(Cl)c24)C3)C[C@@H]1CC#N` [Example 7, 2-((S)-1-acryloyl-4-(8-(8-chloronaphthalen-1-yl)-2-(((S)-1-methylpyrrolidin-2-yl)methoxy)-6,7,8,9-tetrahydro-5H-pyrimido[4,5-c]azepin-4-yl)piperazin-2-yl)acetonitrile] belongs greater than 500 nM.

The values are drawn from US20210230170A1, “KRAS G12C INHIBITORS” (Mirati Therapeutics, Inc., priority 2018, published 2021).
